Among the data in ChEMBL document CHEMBL4765323, “Design, synthesis, and biological evaluation of novel miconazole analogues containing selenium as potent antifungal agents” (Eur J Med Chem, 2020) are MIC values, retold here.

As usually defined, the MIC is the lowest concentration found to suppress growth. Low values mean greater potency, high ones weaker potency.

Molecules are shown by their SMILES. In brackets after ≈: the same amount, converted by molar mass.

Common to all, as to format: functional
Test [1] deals with Candida parapsilosis. The test is described as follows: Antifungal activity against Candida parapsilosis ATCC 22019 measured after 24 hrs by micro-broth dilution assay. To be noted: Lodderomyces parapsilosis. On the technique in general: Broth dilution looks for growth in wells or tubes with falling amounts of substance.
The test system of test [2] is Candida albicans. The test is described as follows: Antifungal activity against fluconazole-resistant Candida albicans strain 904 measured after 24 hrs by micro-broth dilution assay.
Test [3] concerns Candida albicans. The test is described as follows: Antifungal activity against fluconazole-resistant Candida albicans 17 measured after 24 hrs by micro-broth dilution assay.
The test system of test [4] is Candida albicans. The test is described as follows: Antifungal activity against Candida albicans ATCC SC5314 measured after 24 hrs by micro-broth dilution assay.
Test [5] relates to [Candida] zeylanoides. The test is described as follows: Antifungal activity against Candida zeylanoides CMGCC2.3739 measured after 24 hrs by micro-broth dilution assay. To be noted: Dujonia zeylanoides.
The subject of test [6] is Candida albicans. The test is described as follows: Antifungal activity against fluconazole-resistant Candida albicans CaR measured after 24 hrs by micro-broth dilution assay.
Test [7] concerns Candida albicans. The test is described as follows: Antifungal activity against Candida albicans 901 measured after 24 hrs by micro-broth dilution assay.
Test [8] deals with Nakaseomyces glabratus. The test is described as follows: Antifungal activity against clinical isolate Candida glabrata measured after 24 hrs by micro-broth dilution assay.
In test [9] the test system is Pichia kudriavzevii. The test is described as follows: Antifungal activity against Candida krusei AS 2.1045 measured after 24 hrs by micro-broth dilution assay.
For test [10], the system named is Candida albicans. The test is described as follows: Antifungal activity against fluconazole-resistant Candida albicans 632 measured after 24 hrs by micro-broth dilution assay.
The subject of test [11] is Aspergillus fumigatus. The test is described as follows: Antifungal activity against Aspergillus fumigatus CGMCC 3.7795 measured after 72 hrs by micro-broth dilution assay.
For test [12], the system named is Cryptococcus neoformans. The test is described as follows: Antifungal activity against Cryptococcus neoformans CGMCC2.3161 measured after 72 hrs by micro-broth dilution assay.
Test [13] concerns Candida albicans. The test is described as follows: Antifungal activity against Candida albicans CPCC400616 measured after 24 hrs by micro-broth dilution assay.

On to `Clc1ccc(C(Cn2ccnc2)[Se]Cc2ccc(Br)cc2)c(Cl)c1` (configuration not stated), for which the MIC in [1] worked out at 4 µg/mL (≈ 8.18 µM); in test [2], 128 µg/mL (≈ 262 µM); in test [3], 8 µg/mL (≈ 16.4 µM); in test [4], 0.06 µg/mL (≈ 0.123 µM); in [5] it was 2 µg/mL (≈ 4.09 µM); in test [6], 128 µg/mL (≈ 262 µM). The MIC in [7] was 64 µg/mL (≈ 131 µM); in test [8] it was 0.5 µg/mL (≈ 1.02 µM); in test [9], 32 µg/mL (≈ 65.4 µM); in test [10] it was greater than 128 µg/mL; in test [11], 1 µg/mL (≈ 2.04 µM); in [12], 0.5 µg/mL (≈ 1.02 µM). In [13], this compound returned an MIC of 0.25 µg/mL (≈ 0.511 µM).
On to `COc1cc(C[Se]C(Cn2ccnc2)c2ccc(Cl)cc2Cl)cc(OC)c1` (configuration not stated), for which the MIC was found to be 0.5 µg/mL (≈ 1.06 µM) in test [1]; 128 µg/mL (≈ 272 µM) in [2]; 32 µg/mL (≈ 68 µM) in test [3]; 0.13 µg/mL (≈ 0.276 µM) in [4]; 1 µg/mL (≈ 2.13 µM) in test [5]; 4 µg/mL (≈ 8.51 µM) in [6]. The MIC in [7] is 4 µg/mL (≈ 8.51 µM); in test [8], 0.25 µg/mL (≈ 0.532 µM); in test [9] it was 8 µg/mL (≈ 17 µM); in test [10], 32 µg/mL (≈ 68 µM); in test [11], 1 µg/mL (≈ 2.13 µM); in test [12], 0.5 µg/mL (≈ 1.06 µM). The compound also registered an MIC in [13] of 0.13 µg/mL (≈ 0.276 µM).
In the case of `COc1cccc(C[Se]C(Cn2ccnc2)c2ccc(F)cc2F)c1` (configuration not stated), the MIC in [1] was determined as 0.5 µg/mL (≈ 1.23 µM); in [2], 16 µg/mL (≈ 39.3 µM); in test [3], 16 µg/mL (≈ 39.3 µM); in test [4], 0.13 µg/mL (≈ 0.319 µM); in [5], 1 µg/mL (≈ 2.46 µM); in test [6], 4 µg/mL (≈ 9.82 µM). For the same compound, the MIC stood at 8 µg/mL (≈ 19.6 µM) in [7]; 1 µg/mL (≈ 2.46 µM) in test [8]; 2 µg/mL (≈ 4.91 µM) in test [9]; 2 µg/mL (≈ 4.91 µM) in test [10]; 2 µg/mL (≈ 4.91 µM) in [11]; 0.5 µg/mL (≈ 1.23 µM) in test [12]. This compound also showed an MIC in test [13] of 0.06 µg/mL (≈ 0.147 µM).
Consider `Fc1ccc(C[Se]C(Cn2ccnc2)c2ccc(F)cc2F)cc1` (configuration not stated), for which the MIC in test [1] stood at 0.25 µg/mL (≈ 0.632 µM); in test [2], 8 µg/mL (≈ 20.2 µM); in test [3], 32 µg/mL (≈ 81 µM); in test [4] it was 0.03 µg/mL (≈ 0.0759 µM); in test [5], 1 µg/mL (≈ 2.53 µM); in [6], 8 µg/mL (≈ 20.2 µM). Further, the MIC in [7] was 4 µg/mL (≈ 10.1 µM); in test [8] it was 1 µg/mL (≈ 2.53 µM); in test [9] it was 1 µg/mL (≈ 2.53 µM); in test [10], 32 µg/mL (≈ 81 µM); in test [11], 2 µg/mL (≈ 5.06 µM); in test [12], 0.5 µg/mL (≈ 1.26 µM). The compound also had an MIC in test [13] of 0.06 µg/mL (≈ 0.152 µM).
`Cc1ccc(C[Se]C(Cn2ccnc2)c2ccc(F)cc2F)cc1C` (configuration not stated): the MIC in test [1] was 1 µg/mL (≈ 2.47 µM); in test [2] it was greater than 128 µg/mL; in test [3], 64 µg/mL (≈ 158 µM); in test [4] it was 0.13 µg/mL (≈ 0.321 µM); in test [5], 1 µg/mL (≈ 2.47 µM); in test [6], 128 µg/mL (≈ 316 µM). The minimum inhibitory concentration (MIC) in test [7] was 128 µg/mL (≈ 316 µM); in test [8], 1 µg/mL (≈ 2.47 µM); in [9] it was 8 µg/mL (≈ 19.7 µM); in test [10], greater than 128 µg/mL; in [11] it was 2 µg/mL (≈ 4.93 µM); in test [12], 0.5 µg/mL (≈ 1.23 µM). In addition, in test [13], inhibition of growth (MIC) required 0.5 µg/mL (≈ 1.23 µM).
Consider `Cc1ccc(C[Se]C(Cn2ccnc2)c2ccc(F)cc2F)cc1` (configuration not stated), for which the MIC in [1] stood at 0.25 µg/mL (≈ 0.639 µM); in test [2] it was 4 µg/mL (≈ 10.2 µM); in [3] it was 2 µg/mL (≈ 5.11 µM); in test [4], 0.06 µg/mL (≈ 0.153 µM); in [5] it was 0.5 µg/mL (≈ 1.28 µM); in [6] it was 16 µg/mL (≈ 40.9 µM). The MIC in test [7] is 1 µg/mL (≈ 2.56 µM); in [8], 1 µg/mL (≈ 2.56 µM); in [9] it was 2 µg/mL (≈ 5.11 µM); in test [10] it was 16 µg/mL (≈ 40.9 µM); in [11], 1 µg/mL (≈ 2.56 µM); in test [12] it was 0.5 µg/mL (≈ 1.28 µM). This compound also gave a minimal inhibitory concentration (MIC) in test [13] of 0.25 µg/mL (≈ 0.639 µM).
In the case of `Fc1ccc(C[Se]C(Cn2ccnc2)c2ccc(Cl)cc2Cl)cc1` (configuration not stated), the minimum inhibitory concentration (MIC) in test [1] was determined as 0.5 µg/mL (≈ 1.17 µM); in test [2], 64 µg/mL (≈ 149 µM); in test [3], 4 µg/mL (≈ 9.34 µM); in test [4], 0.03 µg/mL (≈ 0.0701 µM); in [5], 4 µg/mL (≈ 9.34 µM); in test [6], 16 µg/mL (≈ 37.4 µM). For the same compound, the MIC in [7] was 32 µg/mL (≈ 74.7 µM); in test [8] it was 0.13 µg/mL (≈ 0.304 µM); in test [9] it was 1 µg/mL (≈ 2.34 µM); in test [10] it was 128 µg/mL (≈ 299 µM); in [11] it was 2 µg/mL (≈ 4.67 µM); in test [12], 0.25 µg/mL (≈ 0.584 µM). Inhibition of growth in [13] (MIC) required 0.03 µg/mL (≈ 0.0701 µM).
Turning to `Fc1ccc(C(Cn2ccnc2)[Se]Cc2ccc(Cl)cc2)c(F)c1` (configuration not stated), the MIC is 0.13 µg/mL (≈ 0.316 µM) in test [1]; 2 µg/mL (≈ 4.86 µM) in test [2]; 8 µg/mL (≈ 19.4 µM) in test [3]; 0.03 µg/mL (≈ 0.0729 µM) in test [4]; 1 µg/mL (≈ 2.43 µM) in test [5]; 16 µg/mL (≈ 38.9 µM) in test [6]. In addition, the MIC is 8 µg/mL (≈ 19.4 µM) in test [7]; 1 µg/mL (≈ 2.43 µM) in test [8]; 0.5 µg/mL (≈ 1.21 µM) in [9]; 64 µg/mL (≈ 155 µM) in test [10]; 1 µg/mL (≈ 2.43 µM) in test [11]; 0.5 µg/mL (≈ 1.21 µM) in [12]. In test [13], this compound showed an MIC of 0.5 µg/mL (≈ 1.21 µM).
Regarding `COc1cc(Br)c(C[Se]C(Cn2ccnc2)c2ccc(Cl)cc2Cl)cc1OC` (configuration not stated), the MIC in test [1] was greater than 128 µg/mL; in test [2] it was 32 µg/mL (≈ 58.3 µM); in test [3], greater than 128 µg/mL; in test [4] it was 0.03 µg/mL (≈ 0.0546 µM); in test [5], greater than 128 µg/mL; in test [6] it was 128 µg/mL (≈ 233 µM). For the same compound, the MIC in [7] is 128 µg/mL (≈ 233 µM); in test [8], 0.5 µg/mL (≈ 0.91 µM); in test [9] it was greater than 128 µg/mL; in [10], greater than 128 µg/mL; in test [11], 16 µg/mL (≈ 29.1 µM); in [12] it was 0.5 µg/mL (≈ 0.91 µM). The compound further registered an MIC in test [13] of 0.25 µg/mL (≈ 0.455 µM).
